# Measurements published in ChEMBL document CHEMBL3400097, “Effect of arginine methylation on the RNA recognition and cellular uptake of Tat-derived peptides” (Bioorg Med Chem, 2015).
# Legend:
# Jurkat [1] = assay: Cellular uptake in human Jurkat cells at 7 to 120 uM after 15 mins by 6-carboxyfluorescein staining-based flow cytometry; assay type: ADME, cell-based; conditions: 0.25 h
# Jurkat [2] = assay: Cytotoxicity against human Jurkat cells assessed as cell viability at 120 uM after 4 hrs by WST-1 assay; assay type: cell-based
# Nucleic Acid = assay: Binding affinity to HIV TAR RNA by electrophoretic mobility shift assay in presence of Escherichia coli tRNA; assay type: nucleic-acid assay, Human immunodeficiency virus
SMILES,Drug uptake (Jurkat [1]),Activity (Jurkat [2]),Kd (Nucleic Acid) [nM]
N=C(N)NCCC[C@H](NC(=O)[C@H](CCCNC(=N)N)NC(=O)[C@H](CCCNC(=N)N)NC(=O)[C@H](CCC(N)=O)NC(=O)[C@H](CCCNC(=N)N)NC(=O)[C@H](CCCNC(=N)N)NC(=O)[C@H](CCCCN)NC(=O)[C@H](CCCCN)NC(=O)[C@H](CCCNC(=N)N)NC(=O)CNC(=O)[C@H](Cc1ccc(O)cc1)NC(=O)CCNC(=O)c1ccc2c(c1)C1(OC2=O)c2ccc(O)cc2Oc2cc(O)ccc21)C(N)=O,Active,–,–
CNC(=N)NCCC[C@H](NC(=O)CNC(=O)[C@H](Cc1ccc(O)cc1)NC(=O)CCNC(=O)c1ccc2c(c1)C1(OC2=O)c2ccc(O)cc2Oc2cc(O)ccc21)C(=O)N[C@@H](CCCCN)C(=O)N[C@@H](CCCCN)C(=O)N[C@@H](CCCNC(=N)N)C(=O)N[C@@H](CCCNC(=N)N)C(=O)N[C@@H](CCC(N)=O)C(=O)N[C@@H](CCCNC(=N)N)C(=O)N[C@@H](CCCNC(=N)N)C(=O)N[C@@H](CCCNC(=N)N)C(N)=O,Active,–,–
CNC(=N)NCCC[C@H](NC(=O)[C@H](CCCCN)NC(=O)[C@H](CCCCN)NC(=O)[C@H](CCCNC(=N)N)NC(=O)CNC(=O)[C@H](Cc1ccc(O)cc1)NC(=O)CCNC(=O)c1ccc2c(c1)C1(OC2=O)c2ccc(O)cc2Oc2cc(O)ccc21)C(=O)N[C@@H](CCCNC(=N)N)C(=O)N[C@@H](CCC(N)=O)C(=O)N[C@@H](CCCNC(=N)N)C(=O)N[C@@H](CCCNC(=N)N)C(=O)N[C@@H](CCCNC(=N)N)C(N)=O,Active,–,–
CNC(=N)NCCC[C@H](NC(=O)[C@H](CCCNC(=N)N)NC(=O)[C@H](CCCCN)NC(=O)[C@H](CCCCN)NC(=O)[C@H](CCCNC(=N)N)NC(=O)CNC(=O)[C@H](Cc1ccc(O)cc1)NC(=O)CCNC(=O)c1ccc2c(c1)C1(OC2=O)c2ccc(O)cc2Oc2cc(O)ccc21)C(=O)N[C@@H](CCC(N)=O)C(=O)N[C@@H](CCCNC(=N)N)C(=O)N[C@@H](CCCNC(=N)N)C(=O)N[C@@H](CCCNC(=N)N)C(N)=O,Active,–,–
CC(=O)N[C@@H](Cc1ccc(O)cc1)C(=O)NCC(=O)N[C@@H](CCCNC(=N)N)C(=O)N[C@@H](CCCCN)C(=O)N[C@@H](CCCCN)C(=O)N[C@@H](CCCNC(=N)N)C(=O)N[C@@H](CCCNC(=N)N)C(=O)N[C@@H](CCC(N)=O)C(=O)N[C@@H](CCCNC(=N)N)C(=O)N[C@@H](CCCNC(=N)N)C(=O)N[C@@H](CCCNC(=N)N)C(N)=O,–,Non-toxic,260
CNC(=N)NCCC[C@H](NC(=O)CNC(=O)[C@H](Cc1ccc(O)cc1)NC(C)=O)C(=O)N[C@@H](CCCCN)C(=O)N[C@@H](CCCCN)C(=O)N[C@@H](CCCNC(=N)N)C(=O)N[C@@H](CCCNC(=N)N)C(=O)N[C@@H](CCC(N)=O)C(=O)N[C@@H](CCCNC(=N)N)C(=O)N[C@@H](CCCNC(=N)N)C(=O)N[C@@H](CCCNC(=N)N)C(N)=O,–,Non-toxic,285
CNC(=N)NCCC[C@H](NC(=O)[C@H](CCCCN)NC(=O)[C@H](CCCCN)NC(=O)[C@H](CCCNC(=N)N)NC(=O)CNC(=O)[C@H](Cc1ccc(O)cc1)NC(C)=O)C(=O)N[C@@H](CCCNC(=N)N)C(=O)N[C@@H](CCC(N)=O)C(=O)N[C@@H](CCCNC(=N)N)C(=O)N[C@@H](CCCNC(=N)N)C(=O)N[C@@H](CCCNC(=N)N)C(N)=O,–,Non-toxic,310
CNC(=N)NCCC[C@H](NC(=O)[C@H](CCCNC(=N)N)NC(=O)[C@H](CCCCN)NC(=O)[C@H](CCCCN)NC(=O)[C@H](CCCNC(=N)N)NC(=O)CNC(=O)[C@H](Cc1ccc(O)cc1)NC(C)=O)C(=O)N[C@@H](CCC(N)=O)C(=O)N[C@@H](CCCNC(=N)N)C(=O)N[C@@H](CCCNC(=N)N)C(=O)N[C@@H](CCCNC(=N)N)C(N)=O,–,Non-toxic,383
CNC(=N)NCCC[C@H](NC(=O)[C@H](CCC(N)=O)NC(=O)[C@H](CCCNC(=N)N)NC(=O)[C@H](CCCNC(=N)N)NC(=O)[C@H](CCCCN)NC(=O)[C@H](CCCCN)NC(=O)[C@H](CCCNC(=N)N)NC(=O)CNC(=O)[C@H](Cc1ccc(O)cc1)NC(C)=O)C(=O)N[C@@H](CCCNC(=N)N)C(=O)N[C@@H](CCCNC(=N)N)C(N)=O,–,Non-toxic,380
CNC(=N)NCCC[C@H](NC(=O)[C@H](CCCNC(=N)N)NC(=O)[C@H](CCC(N)=O)NC(=O)[C@H](CCCNC(=N)N)NC(=O)[C@H](CCCNC(=N)N)NC(=O)[C@H](CCCCN)NC(=O)[C@H](CCCCN)NC(=O)[C@H](CCCNC(=N)N)NC(=O)CNC(=O)[C@H](Cc1ccc(O)cc1)NC(C)=O)C(=O)N[C@@H](CCCNC(=N)N)C(N)=O,–,Non-toxic,219
CNC(=N)NCCC[C@H](NC(=O)[C@H](CCCNC(=N)N)NC(=O)[C@H](CCCNC(=N)N)NC(=O)[C@H](CCC(N)=O)NC(=O)[C@H](CCCNC(=N)N)NC(=O)[C@H](CCCNC(=N)N)NC(=O)[C@H](CCCCN)NC(=O)[C@H](CCCCN)NC(=O)[C@H](CCCNC(=N)N)NC(=O)CNC(=O)[C@H](Cc1ccc(O)cc1)NC(C)=O)C(N)=O,–,Non-toxic,197
CC(=O)N[C@@H](Cc1ccc(O)cc1)C(=O)NCC(=O)N[C@@H](CCCNC(=N)N(C)C)C(=O)N[C@@H](CCCCN)C(=O)N[C@@H](CCCCN)C(=O)N[C@@H](CCCNC(=N)N)C(=O)N[C@@H](CCCNC(=N)N)C(=O)N[C@@H](CCC(N)=O)C(=O)N[C@@H](CCCNC(=N)N)C(=O)N[C@@H](CCCNC(=N)N)C(=O)N[C@@H](CCCNC(=N)N)C(N)=O,–,Non-toxic,279
CC(=O)N[C@@H](Cc1ccc(O)cc1)C(=O)NCC(=O)N[C@@H](CCCNC(=N)N)C(=O)N[C@@H](CCCCN)C(=O)N[C@@H](CCCCN)C(=O)N[C@@H](CCCNC(=N)N(C)C)C(=O)N[C@@H](CCCNC(=N)N)C(=O)N[C@@H](CCC(N)=O)C(=O)N[C@@H](CCCNC(=N)N)C(=O)N[C@@H](CCCNC(=N)N)C(=O)N[C@@H](CCCNC(=N)N)C(N)=O,–,Non-toxic,385
CC(=O)N[C@@H](Cc1ccc(O)cc1)C(=O)NCC(=O)N[C@@H](CCCNC(=N)N)C(=O)N[C@@H](CCCCN)C(=O)N[C@@H](CCCCN)C(=O)N[C@@H](CCCNC(=N)N)C(=O)N[C@@H](CCCNC(=N)N(C)C)C(=O)N[C@@H](CCC(N)=O)C(=O)N[C@@H](CCCNC(=N)N)C(=O)N[C@@H](CCCNC(=N)N)C(=O)N[C@@H](CCCNC(=N)N)C(N)=O,–,Non-toxic,881
CC(=O)N[C@@H](Cc1ccc(O)cc1)C(=O)NCC(=O)N[C@@H](CCCNC(=N)N)C(=O)N[C@@H](CCCCN)C(=O)N[C@@H](CCCCN)C(=O)N[C@@H](CCCNC(=N)N)C(=O)N[C@@H](CCCNC(=N)N)C(=O)N[C@@H](CCC(N)=O)C(=O)N[C@@H](CCCNC(=N)N(C)C)C(=O)N[C@@H](CCCNC(=N)N)C(=O)N[C@@H](CCCNC(=N)N)C(N)=O,–,Non-toxic,398
CC(=O)N[C@@H](Cc1ccc(O)cc1)C(=O)NCC(=O)N[C@@H](CCCNC(=N)N)C(=O)N[C@@H](CCCCN)C(=O)N[C@@H](CCCCN)C(=O)N[C@@H](CCCNC(=N)N)C(=O)N[C@@H](CCCNC(=N)N)C(=O)N[C@@H](CCC(N)=O)C(=O)N[C@@H](CCCNC(=N)N)C(=O)N[C@@H](CCCNC(=N)N(C)C)C(=O)N[C@@H](CCCNC(=N)N)C(N)=O,–,Non-toxic,404
CC(=O)N[C@@H](Cc1ccc(O)cc1)C(=O)NCC(=O)N[C@@H](CCCNC(=N)N)C(=O)N[C@@H](CCCCN)C(=O)N[C@@H](CCCCN)C(=O)N[C@@H](CCCNC(=N)N)C(=O)N[C@@H](CCCNC(=N)N)C(=O)N[C@@H](CCC(N)=O)C(=O)N[C@@H](CCCNC(=N)N)C(=O)N[C@@H](CCCNC(=N)N)C(=O)N[C@@H](CCCNC(=N)N(C)C)C(N)=O,–,Non-toxic,277
C/N=C(\NC)NCCC[C@H](NC(=O)CNC(=O)[C@H](Cc1ccc(O)cc1)NC(C)=O)C(=O)N[C@@H](CCCCN)C(=O)N[C@@H](CCCCN)C(=O)N[C@@H](CCCNC(=N)N)C(=O)N[C@@H](CCCNC(=N)N)C(=O)N[C@@H](CCC(N)=O)C(=O)N[C@@H](CCCNC(=N)N)C(=O)N[C@@H](CCCNC(=N)N)C(=O)N[C@@H](CCCNC(=N)N)C(N)=O,–,Non-toxic,219
C/N=C(\NC)NCCC[C@H](NC(=O)[C@H](CCCCN)NC(=O)[C@H](CCCCN)NC(=O)[C@H](CCCNC(=N)N)NC(=O)CNC(=O)[C@H](Cc1ccc(O)cc1)NC(C)=O)C(=O)N[C@@H](CCCNC(=N)N)C(=O)N[C@@H](CCC(N)=O)C(=O)N[C@@H](CCCNC(=N)N)C(=O)N[C@@H](CCCNC(=N)N)C(=O)N[C@@H](CCCNC(=N)N)C(N)=O,–,Non-toxic,328
C/N=C(\NC)NCCC[C@H](NC(=O)[C@H](CCCNC(=N)N)NC(=O)[C@H](CCCCN)NC(=O)[C@H](CCCCN)NC(=O)[C@H](CCCNC(=N)N)NC(=O)CNC(=O)[C@H](Cc1ccc(O)cc1)NC(C)=O)C(=O)N[C@@H](CCC(N)=O)C(=O)N[C@@H](CCCNC(=N)N)C(=O)N[C@@H](CCCNC(=N)N)C(=O)N[C@@H](CCCNC(=N)N)C(N)=O,–,Non-toxic,576
C/N=C(\NC)NCCC[C@H](NC(=O)[C@H](CCC(N)=O)NC(=O)[C@H](CCCNC(=N)N)NC(=O)[C@H](CCCNC(=N)N)NC(=O)[C@H](CCCCN)NC(=O)[C@H](CCCCN)NC(=O)[C@H](CCCNC(=N)N)NC(=O)CNC(=O)[C@H](Cc1ccc(O)cc1)NC(C)=O)C(=O)N[C@@H](CCCNC(=N)N)C(=O)N[C@@H](CCCNC(=N)N)C(N)=O,–,Non-toxic,527
C/N=C(\NC)NCCC[C@H](NC(=O)[C@H](CCCNC(=N)N)NC(=O)[C@H](CCC(N)=O)NC(=O)[C@H](CCCNC(=N)N)NC(=O)[C@H](CCCNC(=N)N)NC(=O)[C@H](CCCCN)NC(=O)[C@H](CCCCN)NC(=O)[C@H](CCCNC(=N)N)NC(=O)CNC(=O)[C@H](Cc1ccc(O)cc1)NC(C)=O)C(=O)N[C@@H](CCCNC(=N)N)C(N)=O,–,Non-toxic,317
C/N=C(\NC)NCCC[C@H](NC(=O)[C@H](CCCNC(=N)N)NC(=O)[C@H](CCCNC(=N)N)NC(=O)[C@H](CCC(N)=O)NC(=O)[C@H](CCCNC(=N)N)NC(=O)[C@H](CCCNC(=N)N)NC(=O)[C@H](CCCCN)NC(=O)[C@H](CCCCN)NC(=O)[C@H](CCCNC(=N)N)NC(=O)CNC(=O)[C@H](Cc1ccc(O)cc1)NC(C)=O)C(N)=O,–,Non-toxic,262
